PMC7695167, “Targeting the Interaction between the SH3 Domain of Grb2 and Gab2” (Cells, 2020)

Target: T1, C-SH3 Grb2 (C-terminal SH3 domain of Grb2) (Homo sapiens, UniProt P62993)
T1 construct: isolated C-terminal SH3 domain, recombinant, expressed and purified as previously reported
Assay: tryptophan fluorescence, titration of preformed C-SH3:Gab2 peptide complex
Type: binding
Settings: read-out: apparent inhibition constant

T1 sequence (P62993 159-217 limits assumed): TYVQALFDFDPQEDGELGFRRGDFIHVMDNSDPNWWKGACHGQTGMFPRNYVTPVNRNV

Ki: ~5 µM
SMILES: CCOc1cc(CNCCc2ccc(OC)cc2)ccc1OCc1cccc(Cl)c1 [AN-465-J137-985, N-(4-((3-Chlorobenzyl)oxy)-3-ethoxybenzyl)-2-(4-methoxyphenyl)ethan-1-amine]
